Results from US20070203144A1, “Use of Memantine and Brimonidine to Attenuate Vitreoretinal Vascular Endothelial Growth Factor (VEGF) Protein Levels in Animals” (Allergan, Inc., priority 2006, published 2007).

How the values were obtained:
VEGF protein [1] = experiment: Vitreal VEGF protein level in STZ-induced diabetic Long Evans rats; assay type: in vivo; details: STZ diabetic LE rats, mini-osmotic pump, STZ/Veh 228, Veh/Veh 164
Protocol: Long Evans (LE) rats were treated with vehicle or streptozotocin (1×, 65 mg/kg). After 7 days, vehicle treated rats were treated further with a second vehicle and STZ treated diabetic rats were treated either with a second vehicle, Brimonidine (1 mg/kg/d) as a positive control, Panagonist A (300 ug/kg/d) or panagonist B (300 ug or 3 mg/kg/d) for another 3 wks using mini-osmotic pumps. Note that the synthesis of these two panagonists is known in the art. The panagonists have the following structure [drawing 1]
At end of the study, animals were sacrificed & vitreal VEGF protein level was measured as described earlier.
Long Evans rats were treated with vehicle or streptozotocin (1×, 65 mg/kg). After 7 days, vehicle treated rats were treated further with a second vehicle and STZ treated diabetic rats were treated either with a second vehicle, Brimonidine (1 mg/kg/d) as a positive control, or the Alpha 2B selective agonist, [drawing 2] (“2B Agonist”) (300 ug or 3 mg/kg/d) for another 3 wks using mini-osmotic pumps At end of the study, animals were sacrificed & vitreal VEGF protein level was measured as described earlier.

VEGF protein [2] = experiment: VEGF protein levels in retina of STZ-treated BN rats; assay type: in vivo, Brown Norway (BN) rats; details: 5 wks, Mem 10 mg/kg/day or Bri 1 mg/kg/day for 4 wks after 1 wk of STZ, STZ/Veh 719, Veh/Veh 482
Protocol: (§1) Male Brown Norway (BN) rats were randomized into 4 different groups based on basal glucose and body weight. Using one time IP injection, one group of animals was treated with vehicle and other 3 groups were treated with 65 mg/kg streptozotocin (STZ). Within two days after STZ-treatment, blood glucose of the animals reached to 400 mg/dl from 100 mg/dl. After one wk of vehicle or STZ treatment, vehicle treated animals were further treated with a second vehicle for another 4 wks (Veh/Veh-35 D) and STZ treated animals were treated with either a second vehicle (STZ-35D/Veh-28D), Memantine, Mem (10 mg/kg/day) (STZ-35D/Mem-28D) or Brimonidine, Bri (1 mg/kg/day) for 4 wks (STZ-35D/Bri-28D) using mini osmotic pumps.

VEGF protein [3] = experiment: VEGF protein levels in vitreous fluid of STZ-treated BN rats; assay type: in vivo, Brown Norway (BN) rats; details: 5 wks, Mem 10 mg/kg/day or Bri 1 mg/kg/day for 4 wks after 1 wk of STZ, STZ/Veh 259, Veh/Veh 157
Protocol: as §1

[4] = tested on: blood-retinal barrier (BRB); experiment: Retinal BRB breakdown in STZ-treated BN rats; assay type: in vivo, Brown Norway (BN) rats; details: 5 wks, Mem 10 mg/kg/day or Bri 1 mg/kg/day for 4 wks after 1 wk of STZ, STZ/Veh 22.9, Veh/Veh 9.1
Protocol: as §1

VEGF protein [5] = experiment: VEGF protein levels in vitreous fluid of non-diabetic BN rats; assay type: in vivo, Brown Norway (BN) rats; details: Mem 10 mg/kg/day or Bri 1 mg/kg/day for 28 days
[6] = 300 ug/kg/d for 3 wks (1 wk after STZ)
[7] = 3 mg/kg/d for 3 wks (1 wk after STZ)

SMILES | VEGF protein levels in vitreous fluid (VEGF protein [1]; [6]) | VEGF protein levels in vitreous fluid (VEGF protein [1]; [7]) | VEGF protein levels in retina (VEGF protein [2]) | VEGF protein levels in vitreous fluid (VEGF protein [3]) | BRB breakdown in retina [4] | difference in vitreous fluid VEGF protein levels vs vehicle (VEGF protein [5]) | VEGF protein levels in vitreous fluid (VEGF protein [1]; 1 mg/kg/d for 3 wks (1 wk after STZ))
c1cnc2c(c1)CC[C@@H](Cc1c[nH]cn1)C2 [panagonist A] | 133 pg/mL |  |  |  |  |  | 
Cc1cccc([C@@H](C)c2c[nH]c(=S)[nH]2)c1C [panagonist B] | 122 pg/mL | 109 pg/mL |  |  |  |  | 
CC12CC3CC(C)(C1)CC(N)(C3)C2 [Memantine, memantine] |  |  | 475 pg/mg protein | 160 pg/mL | 11.9 ul plasma/g retina dry weight/hr | no difference | 
S=c1[nH]cc(CC2CC=CC2)[nH]1 [2B Agonist] | 148 pg/mL | 130 pg/mL |  |  |  |  | 
Brc1c(NC2=NCCN2)ccc2nccnc12 [Brimonidine, brimonidine] |  |  | 455 pg/mg protein | 140 pg/mL | 12.2 ul plasma/g retina dry weight/hr | no difference | 133 pg/mL
